Source: patent publication US20130217702A1 (Richter Gedeon Nyrt., priority 2010, published 2013)

How the values were obtained:
[1] = target: T1, recombinant human B1 receptors (Homo sapiens, UniProt P46663); experiment: Functional assay: antagonist potency by cytosolic calcium measurement (plate reader fluorimeter) in CHO-B1 cells, agonist LysDABK; type: cell-based; conditions: CHO-B1 cells, inhibition of LysDABK (EC80)-evoked [Ca2+]i elevation; read-out: B1 func.
T1 construct: host or cells: CHO (CHO-B1)
T1 sequence (P46663 1-353): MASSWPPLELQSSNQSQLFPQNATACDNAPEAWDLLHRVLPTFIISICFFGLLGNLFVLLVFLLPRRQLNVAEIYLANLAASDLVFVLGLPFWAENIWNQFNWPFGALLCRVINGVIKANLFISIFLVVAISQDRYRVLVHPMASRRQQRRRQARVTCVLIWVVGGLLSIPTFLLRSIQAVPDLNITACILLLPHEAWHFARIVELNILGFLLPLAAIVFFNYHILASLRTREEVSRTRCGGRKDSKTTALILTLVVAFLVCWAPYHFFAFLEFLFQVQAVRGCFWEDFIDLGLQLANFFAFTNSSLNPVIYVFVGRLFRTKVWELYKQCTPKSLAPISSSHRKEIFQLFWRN
How it was run: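 IC50 is the concentration giving half-maximal inhibition of the LysDABK (EC80) calcium response, fitted from at least three experiments. CHO cells stably expressing human B1 were dye-loaded, exposed to compound for 20-25 min, then read by fluo-4 fluorescence (ΔF/F) at 37 °C.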

[2] = target: T2, human recombinant bradykinin B1 receptor (Homo sapiens, UniProt P46663); experiment: Human recombinant bradykinin B1 receptor competitive radioligand binding; conditions: hB1 expressed in CHO cells, [3H]-[Des-Arg10] Kallidin radioligand; read-out: B1 binding
T2 construct: host or cells: CHO cells, clone hB1-A5
T2 sequence (P46663 1-353): T1 sequence (P46663 1-353)
How it was run: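 Competition radioligand binding on CHO-expressed hB1 membranes, using [3,4-prolyl-3,4-^3H(N)]-[Des-Arg^10] Kallidin as tracer, 15 min at 25° C. Excess Lys-des-Arg^9-Bradykinin (10 μM) set nonspecific binding. Sigmoidal fits of at least seven concentrations gave IC50, converted to Ki via Cheng-Prusoff; KD from Scatchard.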

## Cc1nc(-c2c(Cl)c3ccccc3n2-c2ccc(CNC(=O)C3(NC(=O)c4cc(C(F)(F)F)ccc4F)CC3)cc2)no1 [Example 96, N-(1-{4-[3-Chloro-2-(5-methyl-[1,2,4]oxadiazol-3-yl)-indol-1-yl]-benzylcarbamoyl}-cyclopropyl)-2-fluoro-5-trifluoromethyl-benzamide]
[1]
  IC50: < 0.02 µM
[2]
  Ki: < 0.02 µM

## COc1cc(C(=O)NC2(C(=O)NCc3ccc(-n4c(-c5nnn(C)n5)c(Cl)c5ccccc54)cn3)CC2)on1 [Example 60]
[1]
  IC50: < 0.02 µM
[2]
  Ki: < 0.02 µM

## COc1cc(C(=O)NC2(C(=O)NCc3ccc(-n4c(C#N)c(Cl)c5ccccc54)cc3)CC2)on1 [Example 39, 3-Methoxy-isoxazole-5-carboxylic acid {1-[4-(3-chloro-2-cyano-indol-1-yl)-benzyl-carbamoyl]-cyclopropyl}-amide]
[1]
  IC50: < 0.02 µM
[2]
  Ki: < 0.02 µM

## Cc1noc(-c2c(Cl)c3ccccc3n2-c2ccc(CNC(=O)C3(NC(=O)c4cc(C5CC5)on4)CC3)cc2)n1 [Example 114, 5-Cyclopropyl-isoxazole-3-carboxylic acid (1-{4-[3-chloro-2-(3-methyl-[1,2,4]oxadiazol-5-yl)-indol-1-yl]-benzylcarbamoyl}-cyclopropyl)-amide]
[1]
  IC50: < 0.02 µM
[2]
  Ki: < 0.02 µM

## Cc1nc(-c2c(Cl)c3ccccc3n2-c2ccc(CNC(=O)C3(NC(=O)c4cccc(Br)n4)CC3)cc2)no1 [Example 157, 6-Bromo-pyridine-2-carboxylic acid (1-{4-[3-chloro-2-(5-methyl-[1,2,4]oxadiazol-3-yl)-indol-1-yl]-benzylcarbamoyl}-cyclopropyl)-amide]
[1]
  IC50: 0.02 to 0.1 µM
[2]
  Ki: < 0.02 µM

## Cc1nc(-c2c(Cl)c3ccccc3n2-c2ccc(CNC(=O)C3(NC(=O)CC(F)(F)F)CC3)c(F)c2)no1 [Example 108, 1-(3,3,3-Trifluoro-propionylamino)-cyclopropanecarboxylic acid 4-[3-chloro-2-(5-methyl-[1,2,4]oxadiazol-3-yl)-indol-1-yl]-2-fluoro-benzylamide]
[1]
  IC50: < 0.02 µM
[2]
  Ki: < 0.02 µM

## Cc1nc(-c2c(Cl)c3ccccc3n2-c2ccc(CNC(=O)C3(NC(=O)c4csnn4)CC3)cc2)no1 [Example 174, [1,2,3]Thiadiazole-4-carboxylic acid (1-{4-[3-chloro-2-(5-methyl-[1,2,4]oxadiazol-3-yl)-indol-1-yl]-benzylcarbamoyl}-cyclopropyl)-amide]
[1]
  IC50: < 0.02 µM
[2]
  Ki: < 0.02 µM

## Cc1cc(C(=O)NC2(C(=O)NCc3ccc(-n4c(-c5noc(C)n5)c(Cl)c5ccccc54)cc3)CC2)no1 [Example 135, 5-Methyl-isoxazole-3-carboxylic acid (1-{4-[3-chloro-2-(5-methyl-[1,2,4]oxadiazol-3-yl)-indol-1-yl]-benzylcarbamoyl}-cyclopropyl)-amide]
[1]
  IC50: 0.02 to 0.1 µM
[2]
  Ki: < 0.02 µM

## COc1cc(C(=O)NC2(C(=O)NCc3ccc(-n4c(-c5noc(C)n5)c(C#N)c5ccccc54)cc3)CC2)on1 [Example 21, 3-Methoxy-isoxazole-5-carboxylic acid (1-{4-[3-cyano-2-(5-methyl-[1,2,4]oxadiazol-3-yl)-indol-1-yl]-benzylcarbamoyl}-cyclopropyl)-amide]
[1]
  IC50: < 0.02 µM
[2]
  Ki: < 0.02 µM

## Cc1cc(C(=O)NC2(C(=O)NCc3ccc(-n4c(-c5noc(C)n5)c(Cl)c5cc(F)ccc54)cc3)CC2)no1 [Example 88, 5-Methyl-isoxazole-3-carboxylic acid (1-{4-[3-chloro-5-fluoro-2-(5-methyl-[1,2,4]oxadiazol-3-yl)-indol-1-yl]-benzylcarbamoyl}-cyclopropyl)-amide]
[1]
  IC50: < 0.02 µM
[2]
  Ki: < 0.02 µM

## COc1cccc(C(=O)NC2(C(=O)NCc3ccc(-n4c(-c5noc(C)n5)c(Cl)c5ccccc54)cc3)CC2)c1 [Example 175, N-(1-{4-[3-Chloro-2-(5-methyl-[1,2,4]oxadiazol-3-yl)-indol-1-yl]-benzylcarbamoyl}-cyclopropyl)-3-methoxy-benzamide]
[1]
  IC50: 0.02 to 0.1 µM
[2]
  Ki: < 0.02 µM

## COc1cc(C(=O)NC2(C(=O)NCc3ccc(-n4c(-c5nc(C)no5)cc5ccccc54)cn3)CC2)on1 [Example 56, 3-Methoxy-isoxazole-5-carboxylic acid [1-({5-[2-(3-methyl-[1,2,4]oxadiazol-5-yl)-indol-1-yl]-pyridin-2-ylmethyl}-carbamoyl)-cyclopropyl]-amide]
[1]
  IC50: 0.1 to 0.5 µM
[2]
  Ki: 0.1 to 0.5 µM

## COc1cc(C(=O)NC2(C(=O)NCc3ccc(-n4c(C(N)=O)c(Cl)c5ccccc54)cc3)CC2)on1 [Example 188, 3-Chloro-1-{4-[({1-[(3-methoxy-isoxazole-5-carbonyl)-amino]-cyclopropane-carbonyl}-amino)-methyl]-phenyl}-1H-indole-2-carboxylic acid amide]
[1]
  IC50: < 0.02 µM
[2]
  Ki: 0.02 to 0.1 µM

## COc1cc(C(=O)NC2(C(=O)NCc3ccc(-n4c(-c5nnc(C)o5)c(Cl)c5cc(F)ccc54)cc3)CC2)on1 [Example 37, 3-Methoxy-isoxazole-5-carboxylic acid (1-{4-[3-chloro-5-fluoro-2-(5-methyl-[1,3,4]oxadiazol-2-yl)-indol-1-yl]-benzylcarbamoyl}-cyclopropyl)-amide]
[1]
  IC50: < 0.02 µM
[2]
  Ki: < 0.02 µM

## COc1ccc2c(c1)c(Cl)c(-c1nc(C)no1)n2-c1ccc(CNC(=O)C2(NC(=O)c3cc(OC)no3)CC2)cc1 [Example 51, 3-Methoxy-isoxazole-5-carboxylic acid (1-{4-[3-chloro-5-methoxy-2-(3-methyl-[1,2,4]oxadiazol-5-yl)-indol-1-yl]-benzylcarbamoyl}-cyclopropyl)-amide]
[1]
  IC50: < 0.02 µM
[2]
  Ki: < 0.02 µM

## Cc1nc(-c2cc3cc(Cl)ccc3n2-c2ccc(CNC(=O)C3(NC(=O)c4cncc(C(F)(F)F)c4)CC3)cc2)no1 [Example 128, N-(1-{4-[5-Chloro-2-(5-methyl-[1,2,4]oxadiazol-3-yl)-indol-1-yl]-benzylcarbamoyl}-cyclopropyl)-5-trifluoromethyl-nicotinamide]
[1]
  IC50: < 0.02 µM
[2]
  Ki: < 0.02 µM

## Cc1nc(-c2c(Cl)c3cc(F)ccc3n2-c2ccc(CNC(=O)C3(NC(=O)c4ccnc(F)c4)CC3)cc2)no1 [Example 89, N-(1-{4-[3-Chloro-5-fluoro-2-(5-methyl-[1,2,4]oxadiazol-3-yl)-indol-1-yl]-benzylcarbamoyl}-cyclopropyl)-2-fluoro-isonicotinamide]
[1]
  IC50: < 0.02 µM
[2]
  Ki: < 0.02 µM

## COc1ccc2c(c1)cc(-c1nnc(C)o1)n2-c1ccc(CNC(=O)C2(NC(=O)CC(F)(F)F)CC2)cc1 [Example 124, 1-(3,3,3-Trifluoro-propionylamino)-cyclopropanecarboxylic acid 4-[5-methoxy-2-(5-methyl-[1,3,4]oxadiazol-2-yl)-indol-1-yl]-benzylamide]
[1]
  IC50: 0.02 to 0.1 µM
[2]
  Ki: 0.02 to 0.1 µM

## Cc1nc(-c2c(Cl)c3ccccc3n2-c2ccc(CNC(=O)C3(NC(=O)c4cnn(C)c4)CC3)cc2)no1 [Example 121, 1-Methyl-1H-pyrazole-4-carboxylic acid (1-{4-[3-chloro-2-(5-methyl-[1,2,4]oxadiazol-3-yl)-indol-1-yl]-benzylcarbamoyl}-cyclopropyl)-amide]
[1]
  IC50: 0.02 to 0.1 µM
[2]
  Ki: < 0.02 µM

## Cn1nnc(-c2c(Cl)c3ccccc3n2-c2ccc(CNC(=O)C3(NC(=O)c4cccc(F)c4)CC3)cc2)n1 [Example 31, N-(1-{4-[3-chloro-2-(2-methyl-2H-tetrazol-5-yl)-indol-1-yl]-benzylcarbamoyl}-cyclopropyl)-3-fluoro-benzamide]
[1]
  IC50: < 0.02 µM
[2]
  Ki: < 0.02 µM

## Cc1nc(-c2c(Cl)c3cc(F)ccc3n2-c2ccc(CNC(=O)C3(NC(=O)c4cc(C5CC5)on4)CC3)cc2)no1 [Example 90, 5-Cyclopropyl-isoxazole-3-carboxylic acid (1-{4-[3-chloro-5-fluoro-2-(5-methyl-[1,2,4]oxadiazol-3-yl)-indol-1-yl]-benzylcarbamoyl}-cyclopropyl)-amide]
[1]
  IC50: < 0.02 µM
[2]
  Ki: < 0.02 µM

## Cc1nnc(-c2c(Cl)c3ccccc3n2-c2ccc(CNC(=O)C3(NC(=O)c4cncnc4)CC3)cc2)o1 [Example 184, Pyrimidine-5-carboxylic acid (1-{4-[3-chloro-2-(5-methyl-[1,3,4]oxadiazol-2-yl)-indol-1-yl]-benzylcarbamoyl}-cyclopropyl)-amide]
[1]
  IC50: < 0.02 µM
[2]
  Ki: < 0.02 µM

## COc1cc(C(=O)NC2(C(=O)NCc3ccc(-n4c(-c5noc(C)n5)c(Cl)c5ccccc54)cc3F)CC2)on1 [Example 192, 3-Methoxy-isoxazole-5-carboxylic acid (1-{4-[3-chloro-2-(5-methyl-[1,2,4]oxadiazol-3-yl)-indol-1-yl]-2-fluoro-benzylcarbamoyl}-cyclopropyl)-amide]
[1]
  IC50: < 0.02 µM
[2]
  Ki: < 0.02 µM

## CCc1cc(C(=O)NC2(C(=O)NCc3ccc(-n4c(-c5noc(C)n5)c(Cl)c5ccccc54)cc3)CC2)on1 [Example 123, 3-Ethyl-isoxazole-5-carboxylic acid (1-{4-[3-chloro-2-(5-methyl-[1,2,4]oxadiazol-3-yl)-indol-1-yl]-benzylcarbamoyl}-cyclopropyl)-amide]
[1]
  IC50: < 0.02 µM
[2]
  Ki: < 0.02 µM
